Eight compounds from PMC8746696 (Molecules, 2021) can be followed below.

Series [1] concerns the target T1, recombinant human TDP2 (Homo sapiens, UniProt O95551).
T1 sequence (O95551 1-362): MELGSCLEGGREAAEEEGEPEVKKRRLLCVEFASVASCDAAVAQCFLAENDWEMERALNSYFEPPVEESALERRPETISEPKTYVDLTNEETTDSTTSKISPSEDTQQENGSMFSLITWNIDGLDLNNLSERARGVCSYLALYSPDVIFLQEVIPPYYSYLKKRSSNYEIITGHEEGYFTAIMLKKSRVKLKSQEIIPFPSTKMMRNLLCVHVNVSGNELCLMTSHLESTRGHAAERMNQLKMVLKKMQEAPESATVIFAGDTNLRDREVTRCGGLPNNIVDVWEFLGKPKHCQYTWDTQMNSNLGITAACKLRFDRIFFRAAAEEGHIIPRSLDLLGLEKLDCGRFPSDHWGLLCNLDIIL
In words: Gel-based TDP2 activity assay (removal of 5'-tyrosine from oligonucleotide, PAGE). It counts as biochemical. Also on record: key to Tdp2 activity, c 200 µM / Tdp2 (inhibitor concentration 1 mM): TDP2 active (+); -: inactive (−). As to conditions: for Tdp2 activity, c 200 µM: c 200 µM (Table S3 head); for Tdp2 (inhibitor concentration 1 mM) / remaining activity at 1000 µM: inhibitor 1 mM; for remaining activity at 1000 µM: residual enzyme activity, read-out: TDP2 (Inhibitor Concentration 1 mM), residual activity of TDP2. The procedure:
We investigated the activity against the TDP2 enzyme for compounds 4–10, 12–15, and 17–19 (Table 1). TDP2 was tested for its ability to eliminate tyrosine residue from the 5’-end of the oligonucleotide substrate. The TDP2 reaction products were separated under denaturing conditions in polyacrylamide gel (PAGE). […] Note that as different assays formats were used for TDP1 and TDP2 inhibition, the value of these assays cannot be directly compared. A paper on derivatives of usnic acid as effective TDP1 inhibitors and mild inhibitors of TDP2 was recently published. […] More inhibitors of this enzyme have also been reported in the literature. Obviously, further work for increasing activity against TDP2 is needed.
The oligonucleotide with tyrosine residue on the 5′-end (5′-tyrosine-AAC GTC AGG GTC TTC C-FAM-3′) was used for the TDP2 enzyme activity assay. The TDP2 reaction products were separated under denaturing conditions in polyacrylamide gel (PAGE). The reaction was performed in a final volume of 20 μL using 100 nM substrate incubated with 200 nM recombinant human TDP2 in the absence or presence of the inhibitor for 10 min at 37 °C in a buffer containing 50 mM Tris-HCl, pH 8.0, 50 mM NaCl, 7 mM β-mercaptoethanol. Reactions were terminated by the addition of gel loading buffer contained 10% formamide, 7 M carbamide, 0.1% xylene cyanol, and 0,1% bromophenol blue. The samples were heated at 90 °C for 7 min before loading on the gel. The reaction products were separated by electrophoresis in a 20% denaturing PAGE with 7 M carbamide. A Typhoon FLA 9500 phosphorimager (GE Healthcare) was used for gel scanning and imaging. Each experiment was carried out in three independent replicates. The data were analyzed with QuantityOne 4.6.7 software.

The target of series [2] is TDP1 (Homo sapiens, UniProt Q9NUW8). Put plainly: Real-time fluorescence detection of TDP1 activity (FAM/BHQ1 oligonucleotide biosensor). The format is biochemical. From the text: For real-time detection of TDP1 activity, we used the oligonucleotide biosensor based on the ability of TDP1 to remove fluorophore quenchers from the 3′-end of DNA [29]. The hexadecameric oligonucleotide carried 5(6)-carboxyfluorescein (FAM) at the 5′-end and fluorophore quencher BHQ1 (Black Hole Quencher-1) at the 3′-end. TDP1 inhibitors prevent the removal of fluorophore quenchers, thus reducing fluorescence intensity.
TDP1 activity was detected, as described by intensity measurement in a reaction of quencher removal from a fluorophore quencher–coupled DNA oligonucleotide catalyzed by TDP1. The reaction was carried out at different concentrations of inhibitors (the control samples contained 1% of DMSO). The reaction mixtures contained TDP1 buffer (50 mM Tris-HCl pH 8.0, 50 mM NaCl, and 7 mM β-mercaptoethanol), 50 nM biosensor, and an inhibitor being tested. Purified TDP1 (1.5 nM) triggered the reaction. The biosensor (5′-[FAM] AAC GTC AGGGTC TTC C [BHQ]-3′) was synthesized in the Laboratory of Nucleic Acid Chemistry at the Institute of Chemical Biology and Fundamental Medicine (Novosibirsk, Russia).
The reactions were incubated on a POLARstar OPTIMA fluorimeter (BMG LABTECH, GmbH, Ortenberg, Germany) to measure fluorescence every 60 s (ex. 485/em. 520 nm) during the linear phase (here, data from minute 0 to minute 8). The values of IC50 were determined using a six-point concentration response curve in a minimum of three independent experiments and were calculated using MARS Data Analysis 2.0 (BMG LABTECH, Ortenberg, Germany).

Setting [3] is: concentration that inhibits the activity of the enzyme by 50%, read-out: TDP1 IC50.

Structures are written as SMILES. Where two headings read alike, the source gives them in different places. Where only a bound is given, the exact number is not on record here.

Sequence of TDP1 (Q9NUW8 whole entry): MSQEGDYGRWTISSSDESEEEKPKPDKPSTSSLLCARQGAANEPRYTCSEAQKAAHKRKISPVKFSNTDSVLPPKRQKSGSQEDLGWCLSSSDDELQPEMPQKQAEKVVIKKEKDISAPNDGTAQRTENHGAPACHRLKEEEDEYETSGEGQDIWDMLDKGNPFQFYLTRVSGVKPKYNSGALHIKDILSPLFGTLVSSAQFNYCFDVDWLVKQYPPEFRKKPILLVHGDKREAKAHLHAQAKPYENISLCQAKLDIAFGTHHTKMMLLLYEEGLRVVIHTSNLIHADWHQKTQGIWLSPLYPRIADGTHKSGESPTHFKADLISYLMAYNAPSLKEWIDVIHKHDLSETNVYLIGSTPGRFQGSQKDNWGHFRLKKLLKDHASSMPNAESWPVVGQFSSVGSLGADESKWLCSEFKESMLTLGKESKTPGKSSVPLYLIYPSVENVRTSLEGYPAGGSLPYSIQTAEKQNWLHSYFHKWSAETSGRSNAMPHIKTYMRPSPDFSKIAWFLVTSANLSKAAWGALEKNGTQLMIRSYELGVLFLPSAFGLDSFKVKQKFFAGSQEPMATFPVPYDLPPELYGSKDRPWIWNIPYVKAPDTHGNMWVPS

By melting point is commonly meant the temperature of the solid-liquid transition. What is called IC50 is the concentration at which inhibition is half-maximal. `C[C@H](CCc1nc(-c2ccc(Br)cc2)no1)[C@H]1CC[C@H]2[C@@H]3CC[C@@H]4C[C@H](OCc5ccccc5)CC[C@]4(C)[C@H]3C[C@H](OCc3ccccc3)[C@]12C` [Compound 15, 5′-(24-Nor-3α,12α-Dibenzyloxy-5β-cholan-23-yl)-3′-(4″-bromophenyl)-1′,2′,4′-oxadiazole] returned a melting point of 130.2 to 135.5 °C. Further, in series [1], the “Tdp2 activity, c 200 µM” value is recorded as “-”; the “Tdp2 (inhibitor concentration 1 mM)” value is recorded as “-”; the remaining activity at 1000 µM is > 50%. Further, the IC50 in series [2] (setting [3]) came to 420 ± 300 nM.
For the compound `C[C@H](CCc1nnc(-c2ccc(Br)cc2)o1)[C@H]1CC[C@H]2[C@@H]3CC[C@@H]4C[C@H](OCc5ccccc5)CC[C@]4(C)[C@H]3C[C@H](OCc3ccccc3)[C@]12C` [Compound 19, 2′-(24-Nor-3α,12α-dibenzyloxy-5β-cholan-23-yl)-5′-(4″-bromophenyl)-1′,3′,4′-oxadiazole], the melting point is 131.4 °C (dec.). In series [1], the remaining activity at 1000 µM was < 50%. In addition, the IC50 in series [2] (setting [3]) worked out at 1010 ± 430 nM.
Compound `C[C@H](CCC(=O)O/N=C(\N)Cc1ccc(Br)cc1)[C@H]1CC[C@H]2[C@@H]3CC[C@@H]4C[C@H](OCc5ccccc5)CC[C@]4(C)[C@H]3C[C@H](OCc3ccccc3)[C@]12C` [Compound 12] gave a melting point of 80.2 to 83.9 °C. Also, in series [1], the “Tdp2 activity, c 200 µM” value is given as “+”; the “Tdp2 (inhibitor concentration 1 mM)” value is reported as “+”; the remaining activity at 1000 µM is < 50%. Also, in series [2] (setting [3]), the IC50 is 320 ± 130 nM.
Consider `C[C@H](CCC(=O)O)[C@H]1CC[C@H]2[C@@H]3CC[C@@H]4C[C@H](OCc5ccccc5)CC[C@]4(C)[C@H]3C[C@H](O)[C@]12C` [Compound 2, 3α-Benzyloxy-12α-hydroxy-5β-cholan-24-oic Acid], for which the melting point is 86 °C (dec.). In series [1], the “Tdp2 activity, c 200 µM” value is listed as “+” and the “Tdp2 (inhibitor concentration 1 mM)” value is “+”. For the same compound, the IC50 in series [2] (read-out: IC50 (Tdp1, Table S4)) was found to be 18300 nM.
Compound `C[C@H](CCC(=O)Nc1ccc(Br)cc1)[C@H]1CC[C@H]2[C@@H]3CC[C@@H]4C[C@H](OCc5ccccc5)CC[C@]4(C)[C@H]3C[C@H](OCc3ccccc3)[C@]12C` [Compound 7, N-(4′-Bromophenyl)-3α,12α-dibenzyloxy-5β-cholane-24-amide] had a melting point of 186.2 to 191.3 °C. Moreover, in series [1], the “Tdp2 activity, c 200 µM” value is listed as “+”; the “Tdp2 (inhibitor concentration 1 mM)” value was “+”; the remaining activity at 1000 µM is 44 ± 5%. Moreover, in series [2] (setting [3]), the IC50 turned out to be 970 ± 460 nM.
Turning to `C[C@H](CCc1nc(Cc2ccc(Br)cc2)no1)[C@H]1CC[C@H]2[C@@H]3CC[C@@H]4C[C@H](OCc5ccccc5)CC[C@]4(C)[C@H]3C[C@H](OCc3ccccc3)[C@]12C` [Compound 13, 5′-(24-Nor-3α,12α-dibenzyloxy-5β-cholan-23-yl)-3′-(methyl(4″-bromophenyl))-1′,2′,4′-oxadiazole], in series [1], the “Tdp2 activity, c 200 µM” value is “-”; the “Tdp2 (inhibitor concentration 1 mM)” value is listed as “-”; the remaining activity at 1000 µM is > 50%. Moreover, in series [2] (setting [3]), the IC50 was 530 ± 230 nM.
Take `C[C@H](CCC(=S)Nc1ccc(Br)cc1)[C@H]1CC[C@H]2[C@@H]3CC[C@@H]4C[C@H](OCc5ccccc5)CC[C@]4(C)[C@H]3C[C@H](OCc3ccccc3)[C@]12C` [Compound 11, N-(4′-Bromophenyl)-3α,12α-dibenzyloxy-5β-cholane-24-thioamide]: the melting point is 58 °C (dec.).
As to `COC(=O)CC[C@@H](C)[C@H]1CC[C@H]2[C@@H]3CC[C@@H]4C[C@H](OCc5ccccc5)CC[C@]4(C)[C@H]3C[C@H](OCc3ccccc3)[C@]12C` [Compound 16, Methyl 3α,12α-Dibenzyloxy-5β-cholan-24-oate], the melting point was 93.3 to 93.7 °C. For the same compound, in series [1], the “Tdp2 activity, c 200 µM” value is “-” and the “Tdp2 (inhibitor concentration 1 mM)” value is on record as “-”.
